Experiments:
Assay type in all cases: biochemical
[1] = biological target: N-terminally truncated (Δ 27) Abl kinase (Homo sapiens, UniProt P00519); assay: Abl kinase activity inhibition assay, coupled enzyme
Procedure: Reactions were carried out in a solution containing 100 mM HEPES (pH 7.5), 10 mM MgCl2, 25 mM NaCl, 300 μM NADH, 1 mM DTT and 3% DMSO. […] Final concentrations of the components of the coupled enzyme system were 2.5 mM phosphoenolpyruvate, 200 μM NADH, 60 μg/ml pyruvate kinase and 20 μg/ml lactate dehydrogenase.
An assay stock buffer solution was prepared containing all of the reagents listed above with the exception of ATP and the test compound of interest. […] Rates of reaction were obtained using a Molecular Devices Spectramax plate reader (Sunnyvale, Calif.) over 10 min at 30° C. The Ki values were determined from the residual rate data as a function of inhibitor concentration using nonlinear regression (Prism 3.0, Graphpad Software, San Diego, Calif.).

Arg (Abl-2) = Arg (Abl-2) (Homo sapiens, UniProt P42684); assay: Arg (Abl-2) inhibition screen; conditions: ATP at or close to Km
Text: (§1) Compound(s) were screened for their ability to inhibit Arg (Abl-2), FGFR1, MLK1, Tie2, and TrkA using screening methods known to one of ordinary skill in the art. All of the above enzymes were screened with ATP concentrations at or close to the Km for ATP.

FGFR1 = FGFR1 (Homo sapiens, UniProt P11362); assay: FGFR1 inhibition screen; conditions: ATP at or close to Km
Text: as §1

MLK1 = MLK1 (Homo sapiens, UniProt P80192); assay: MLK1 inhibition screen; conditions: ATP at or close to Km
Text: as §1

Tie2 = Tie2 (Homo sapiens, UniProt Q02763); assay: Tie2 inhibition screen; conditions: ATP at or close to Km
Text: as §1

TrkA = TrkA (Homo sapiens, UniProt P04629); assay: TrkA inhibition screen; conditions: ATP at or close to Km
Text: as §1

[2] = Table 6, introduced as Ki values

Arg (Abl-2), sequence (P42684 whole entry, species assumed): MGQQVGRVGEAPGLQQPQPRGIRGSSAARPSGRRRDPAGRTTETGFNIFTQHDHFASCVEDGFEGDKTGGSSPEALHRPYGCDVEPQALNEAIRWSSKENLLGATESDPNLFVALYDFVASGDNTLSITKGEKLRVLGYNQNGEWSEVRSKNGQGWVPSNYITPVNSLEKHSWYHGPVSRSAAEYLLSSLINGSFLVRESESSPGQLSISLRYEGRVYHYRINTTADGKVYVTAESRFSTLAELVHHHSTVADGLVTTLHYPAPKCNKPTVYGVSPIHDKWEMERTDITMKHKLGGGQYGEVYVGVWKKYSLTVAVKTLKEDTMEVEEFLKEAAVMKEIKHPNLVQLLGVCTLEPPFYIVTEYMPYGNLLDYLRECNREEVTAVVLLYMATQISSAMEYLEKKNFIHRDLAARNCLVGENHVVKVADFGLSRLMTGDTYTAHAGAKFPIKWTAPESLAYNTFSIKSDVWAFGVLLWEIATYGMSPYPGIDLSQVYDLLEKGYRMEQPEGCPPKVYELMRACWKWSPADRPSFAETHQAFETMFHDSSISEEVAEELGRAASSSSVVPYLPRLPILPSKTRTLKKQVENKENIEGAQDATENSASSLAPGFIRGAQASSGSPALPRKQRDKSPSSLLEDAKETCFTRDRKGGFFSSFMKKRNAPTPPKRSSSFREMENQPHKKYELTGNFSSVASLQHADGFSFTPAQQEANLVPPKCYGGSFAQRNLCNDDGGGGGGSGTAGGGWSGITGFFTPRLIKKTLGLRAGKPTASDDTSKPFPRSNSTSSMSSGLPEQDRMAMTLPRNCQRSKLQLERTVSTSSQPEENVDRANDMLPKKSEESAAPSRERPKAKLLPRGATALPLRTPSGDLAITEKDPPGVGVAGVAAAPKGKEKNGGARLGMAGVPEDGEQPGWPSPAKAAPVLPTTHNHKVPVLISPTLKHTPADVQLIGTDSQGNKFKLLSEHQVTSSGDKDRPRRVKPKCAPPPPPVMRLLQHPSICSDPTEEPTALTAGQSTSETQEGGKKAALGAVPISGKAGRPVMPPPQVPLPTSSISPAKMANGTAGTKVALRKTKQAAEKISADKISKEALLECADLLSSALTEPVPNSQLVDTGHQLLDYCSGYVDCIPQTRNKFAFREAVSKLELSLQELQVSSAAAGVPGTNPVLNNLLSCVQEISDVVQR
N-terminally truncated (Δ 27) Abl kinase, sequence (P00519 28-1130 limits assumed, stated change not applied): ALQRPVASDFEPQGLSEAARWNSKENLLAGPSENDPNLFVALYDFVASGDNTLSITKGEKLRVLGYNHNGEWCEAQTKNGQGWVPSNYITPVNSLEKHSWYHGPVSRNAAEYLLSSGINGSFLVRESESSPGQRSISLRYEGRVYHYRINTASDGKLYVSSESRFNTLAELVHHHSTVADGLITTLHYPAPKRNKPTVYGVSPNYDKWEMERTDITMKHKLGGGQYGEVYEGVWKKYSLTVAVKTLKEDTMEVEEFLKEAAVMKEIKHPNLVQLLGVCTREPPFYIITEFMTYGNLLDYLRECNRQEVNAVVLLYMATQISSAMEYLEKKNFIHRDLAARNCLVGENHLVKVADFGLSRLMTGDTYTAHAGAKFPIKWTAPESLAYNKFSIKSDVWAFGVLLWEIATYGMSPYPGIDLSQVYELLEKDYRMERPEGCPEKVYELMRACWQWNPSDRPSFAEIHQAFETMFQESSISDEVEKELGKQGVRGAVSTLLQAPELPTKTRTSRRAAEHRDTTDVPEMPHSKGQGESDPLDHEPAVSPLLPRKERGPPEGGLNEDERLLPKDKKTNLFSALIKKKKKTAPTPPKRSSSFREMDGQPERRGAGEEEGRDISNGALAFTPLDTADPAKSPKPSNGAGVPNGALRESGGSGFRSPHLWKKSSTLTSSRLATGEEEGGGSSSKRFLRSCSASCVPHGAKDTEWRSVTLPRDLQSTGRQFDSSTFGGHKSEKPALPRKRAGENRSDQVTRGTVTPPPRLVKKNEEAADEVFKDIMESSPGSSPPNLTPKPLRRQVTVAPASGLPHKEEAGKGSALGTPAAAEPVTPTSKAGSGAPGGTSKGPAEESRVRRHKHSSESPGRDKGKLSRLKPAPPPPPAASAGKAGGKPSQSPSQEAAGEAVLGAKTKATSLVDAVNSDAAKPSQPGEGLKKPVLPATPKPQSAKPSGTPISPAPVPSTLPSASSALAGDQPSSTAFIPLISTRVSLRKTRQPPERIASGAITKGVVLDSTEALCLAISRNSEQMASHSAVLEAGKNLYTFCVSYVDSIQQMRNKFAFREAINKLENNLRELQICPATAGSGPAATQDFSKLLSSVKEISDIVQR
FGFR1, sequence (P11362 22-822, species assumed): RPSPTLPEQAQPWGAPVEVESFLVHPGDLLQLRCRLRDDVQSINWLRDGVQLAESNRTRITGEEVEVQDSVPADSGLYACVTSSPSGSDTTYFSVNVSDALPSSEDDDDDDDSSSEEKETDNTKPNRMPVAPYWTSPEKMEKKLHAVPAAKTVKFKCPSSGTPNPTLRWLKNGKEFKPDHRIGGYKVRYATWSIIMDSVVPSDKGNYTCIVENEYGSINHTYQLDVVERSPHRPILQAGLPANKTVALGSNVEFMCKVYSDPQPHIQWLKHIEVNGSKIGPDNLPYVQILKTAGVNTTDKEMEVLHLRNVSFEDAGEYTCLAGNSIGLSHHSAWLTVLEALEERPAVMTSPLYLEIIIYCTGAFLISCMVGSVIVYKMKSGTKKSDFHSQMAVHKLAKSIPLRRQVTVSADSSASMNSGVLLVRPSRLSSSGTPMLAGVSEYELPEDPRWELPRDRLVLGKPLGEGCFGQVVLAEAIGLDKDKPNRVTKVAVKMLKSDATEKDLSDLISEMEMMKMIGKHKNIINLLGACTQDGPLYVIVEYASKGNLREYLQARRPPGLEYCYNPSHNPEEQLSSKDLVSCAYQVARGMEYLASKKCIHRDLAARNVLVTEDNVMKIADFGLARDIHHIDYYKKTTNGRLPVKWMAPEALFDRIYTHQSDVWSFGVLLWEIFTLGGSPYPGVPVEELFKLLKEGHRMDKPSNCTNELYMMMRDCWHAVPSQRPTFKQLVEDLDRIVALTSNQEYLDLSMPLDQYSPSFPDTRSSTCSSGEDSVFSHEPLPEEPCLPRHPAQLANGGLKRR
MLK1, sequence (P80192 whole entry, species assumed): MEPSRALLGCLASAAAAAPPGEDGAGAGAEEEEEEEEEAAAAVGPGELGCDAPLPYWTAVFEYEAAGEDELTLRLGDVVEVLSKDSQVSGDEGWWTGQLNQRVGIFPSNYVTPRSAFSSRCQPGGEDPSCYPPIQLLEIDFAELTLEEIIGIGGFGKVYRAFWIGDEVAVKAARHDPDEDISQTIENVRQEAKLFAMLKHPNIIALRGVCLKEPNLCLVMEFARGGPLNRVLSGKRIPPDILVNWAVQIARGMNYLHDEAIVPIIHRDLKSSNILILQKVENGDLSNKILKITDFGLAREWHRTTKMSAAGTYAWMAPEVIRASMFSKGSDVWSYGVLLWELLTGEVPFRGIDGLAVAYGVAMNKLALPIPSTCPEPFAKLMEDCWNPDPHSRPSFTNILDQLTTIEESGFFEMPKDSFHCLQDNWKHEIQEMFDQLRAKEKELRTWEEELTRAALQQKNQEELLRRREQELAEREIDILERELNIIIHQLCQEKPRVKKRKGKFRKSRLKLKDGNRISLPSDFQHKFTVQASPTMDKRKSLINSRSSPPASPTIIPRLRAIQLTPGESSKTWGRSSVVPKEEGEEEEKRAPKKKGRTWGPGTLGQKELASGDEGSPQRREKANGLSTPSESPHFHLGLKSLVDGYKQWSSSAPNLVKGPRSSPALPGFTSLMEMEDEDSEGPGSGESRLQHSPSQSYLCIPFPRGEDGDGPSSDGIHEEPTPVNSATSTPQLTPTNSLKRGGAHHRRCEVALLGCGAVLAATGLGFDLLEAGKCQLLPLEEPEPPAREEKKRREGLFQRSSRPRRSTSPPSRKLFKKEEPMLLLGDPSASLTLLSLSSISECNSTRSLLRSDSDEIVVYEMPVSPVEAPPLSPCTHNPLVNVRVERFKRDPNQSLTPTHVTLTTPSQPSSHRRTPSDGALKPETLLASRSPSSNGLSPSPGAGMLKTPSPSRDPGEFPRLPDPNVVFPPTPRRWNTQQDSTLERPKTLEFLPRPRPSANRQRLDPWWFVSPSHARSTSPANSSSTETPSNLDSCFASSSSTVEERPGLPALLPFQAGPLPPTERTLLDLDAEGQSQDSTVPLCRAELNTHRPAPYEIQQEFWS
TrkA, sequence (P04629 33-796, species assumed): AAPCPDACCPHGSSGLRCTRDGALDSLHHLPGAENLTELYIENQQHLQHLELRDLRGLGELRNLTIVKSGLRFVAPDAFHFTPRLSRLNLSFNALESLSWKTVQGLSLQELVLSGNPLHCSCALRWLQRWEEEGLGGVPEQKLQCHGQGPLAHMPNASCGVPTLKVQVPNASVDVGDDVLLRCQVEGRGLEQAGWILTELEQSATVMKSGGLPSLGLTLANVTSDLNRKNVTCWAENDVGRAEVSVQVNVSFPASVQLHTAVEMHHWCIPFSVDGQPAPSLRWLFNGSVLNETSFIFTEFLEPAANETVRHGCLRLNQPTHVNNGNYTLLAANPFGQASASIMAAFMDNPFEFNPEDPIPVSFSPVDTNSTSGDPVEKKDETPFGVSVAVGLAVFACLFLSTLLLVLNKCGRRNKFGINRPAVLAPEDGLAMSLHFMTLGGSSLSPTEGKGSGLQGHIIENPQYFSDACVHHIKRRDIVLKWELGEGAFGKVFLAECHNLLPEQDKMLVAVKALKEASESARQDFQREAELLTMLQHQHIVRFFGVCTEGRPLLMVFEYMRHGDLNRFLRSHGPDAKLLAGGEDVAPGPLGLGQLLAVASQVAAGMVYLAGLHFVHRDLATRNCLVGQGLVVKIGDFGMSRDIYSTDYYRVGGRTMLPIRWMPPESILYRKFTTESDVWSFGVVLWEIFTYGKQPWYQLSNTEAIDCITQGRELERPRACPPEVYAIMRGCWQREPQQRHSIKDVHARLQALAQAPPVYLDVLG

Row | SMILES | Ki [1] | IC50 (Arg (Abl-2); Table 5) | IC50 (FGFR1; Table 5) | other results
1 | CCC(=O)Nc1ccc(Sc2nc(Nc3cc(C)n[nH]3)cc(N3CC(O)(C4CC4)C3)n2)cc1 [Compound I-2] | 0.064 µM | – | – | –
2 | CCC(=O)Nc1ccc(Sc2nc(Nc3cc(C)n[nH]3)cc(N3CC(O)(C4CCCC4)C3)n2)cc1 [Compound I-3] | 0.03 µM | – | – | –
3 | Cc1cc(Nc2cc(N3CC(O)(C4CC4)C3)nc(Sc3ccc(NC(=O)C4CC4)cc3)n2)n[nH]1 [Compound I-8] | 0.03 µM | – | – | –
4 | Cc1cc(Nc2cc(N3CC(F)(C4CC4)C3)nc(Sc3ccc(NC(=O)C4CC4)cc3)n2)n[nH]1 [Compound I-13] | 0.088 µM | – | – | –
5 | Cc1cc(Nc2cc(N3CC(F)(C4CC4)C3)nc(Sc3ccc(NC(=O)CC(F)(F)F)cc3)n2)[nH]n1 [Compound I-14, N-(4-(4-(3-methyl-1H-pyrazol-5-ylamino)-6-(3-cyclopropyl-3-fluoroazetidin-1-yl)pyrimidin-2-ylthio)phenyl)-3,3,3-trifluoropropanamide] | 0.023 µM | 0.014 µM | 0.121 µM | IC50 (Arg (Abl-2); [2]): 0.0033 µM; IC50 (FGFR1; [2]): 0.065 µM; IC50 (MLK1; Table 5): 0.027 µM; IC50 (MLK1; [2]): 0.014 µM; IC50 (Tie2; Table 5): 0.089 µM; IC50 (Tie2; [2]): 0.047 µM; IC50 (TrkA; Table 5): 0.018 µM; IC50 (TrkA; [2]): 0.005 µM
6 | Cc1cc(Nc2cc(N3CC(F)(C4CC4)C3)nc(Sc3ccc(NC(=O)C4CC4)cc3F)n2)n[nH]1 [Compound I-18] | – | 0.053 µM | 0.022 µM | –
7 | Cc1cc(Nc2cc(N3CC(F)(C4CC4)C3)nc(Sc3ccc(NC(=O)CC4CC4)cc3)n2)[nH]n1 [Compound I-19] | – | 0.13 µM | 0.035 µM | –

Reference: patent US8129399B2, “Aminopyrimidines useful as kinase inhibitors” (Vertex Pharmaceuticals Incorporated, priority 2005, dated 2012)
